Eleven compounds from ChEMBL document CHEMBL1156165, “Novel 8-(furan-2-yl)-3-substituted thiazolo [5,4-e][1,2,4] triazolo[1,5-c] pyrimidine-2(3H)-thione derivatives as potential adenosine A(2A) receptor antagonists” (Bioorg Med Chem, 2010) can be followed below.

SMILES strings stand for the structures. The source made the active and inactive calls. The rule behind the calls is not given here.

For test [1], the species on record is Homo sapiens. The test can be described thus: Selectivity ratio of Ki for human adenosine A1 receptor to Ki for human adenosine A2A receptor.
In test [2] the target is Adenosine receptor A2a (Homo sapiens, UniProt P29274). The test can be described thus: biochemical.
Sequence of Adenosine receptor A2a (P29274 whole entry): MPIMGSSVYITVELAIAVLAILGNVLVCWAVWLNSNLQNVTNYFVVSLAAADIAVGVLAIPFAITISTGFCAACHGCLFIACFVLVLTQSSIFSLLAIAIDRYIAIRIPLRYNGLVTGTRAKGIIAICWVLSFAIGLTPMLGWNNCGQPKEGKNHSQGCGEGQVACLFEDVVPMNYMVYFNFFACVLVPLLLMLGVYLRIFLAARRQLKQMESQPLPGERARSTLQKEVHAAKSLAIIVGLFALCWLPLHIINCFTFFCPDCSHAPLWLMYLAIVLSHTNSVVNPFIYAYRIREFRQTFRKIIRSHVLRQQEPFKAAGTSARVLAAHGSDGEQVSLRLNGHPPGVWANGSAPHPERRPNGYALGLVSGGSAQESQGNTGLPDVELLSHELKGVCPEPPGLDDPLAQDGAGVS
Description: Displacement of [3H]ZM241385 from human adenosine A2A receptor expressed in HEK293 cells after 60 mins by rapid filtration assay
Test [3] deals with T1, Adenosine receptor A1 (Homo sapiens, UniProt P30542).
T1 sequence (P30542 whole entry): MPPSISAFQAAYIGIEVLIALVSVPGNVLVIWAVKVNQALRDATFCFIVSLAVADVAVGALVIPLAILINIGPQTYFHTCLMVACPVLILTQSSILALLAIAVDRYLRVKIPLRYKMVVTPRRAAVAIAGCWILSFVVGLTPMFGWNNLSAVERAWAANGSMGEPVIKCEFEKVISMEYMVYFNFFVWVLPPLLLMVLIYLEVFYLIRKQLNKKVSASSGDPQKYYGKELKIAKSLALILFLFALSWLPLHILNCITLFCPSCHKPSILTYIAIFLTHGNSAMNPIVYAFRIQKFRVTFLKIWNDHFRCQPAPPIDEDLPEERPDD
The test is described as follows: biochemical.
Description: Displacement of [3H]DPCPX from human adenosine A1 receptor expressed in HEK293 cells after 60 mins by rapid filtration assay

For test [4], the system named is Mus musculus. The test can be described thus: Inhibition of haloperidol-induced akinesia in Swiss albino mouse at 20 mg/kg, ip administered 30 mins prior to haloperidol challenge measured after 15 to 120 mins. In kind it is functional, organism-based. On the set-up: dose 20 mg/kg.
The subject of test [5] is Mus musculus. The test can be described thus: Inhibition of haloperidol-induced catalepsy in Swiss albino mouse at 10 mg/kg, ip administered 30 mins prior to haloperidol challenge measured after 15 to 120 mins. In kind it is functional, organism-based. On the set-up: dose 10 mg/kg.
For test [6], the system named is Mus musculus. The test is described as follows: Inhibition of haloperidol-induced akinesia in Swiss albino mouse at 10 mg/kg, ip administered 30 mins prior to haloperidol challenge measured after 15 to 120 mins. The test is classed as functional, organism-based. On the set-up: dose 10 mg/kg.
For test [7], the system named is Mus musculus. The test is described as follows: Inhibition of haloperidol-induced catalepsy in Swiss albino mouse at 20 mg/kg, ip administered 30 mins prior to haloperidol challenge measured after 15 to 120 mins. In kind it is functional, organism-based. On the set-up: dose 20 mg/kg.
In test [8] the test system is Mus musculus. The test can be described thus: Inhibition of haloperidol-induced catalepsy in Swiss albino mouse at 5 mg/kg, ip administered 30 mins prior to haloperidol challenge measured after 15 to 120 mins. In kind it is functional, organism-based. On the set-up: dose 5 mg/kg.
Test [9] concerns Mus musculus. The test can be described thus: Inhibition of haloperidol-induced akinesia in Swiss albino mouse at 5 mg/kg, ip administered 30 mins prior to haloperidol challenge measured after 15 to 120 mins. In kind it is functional, organism-based. On the set-up: dose 5 mg/kg.

Broadly, the Ki is the dissociation constant of the complex between target and ligand, obtained from inhibition or displacement. High values mean a looser hold on the target, low ones a stronger hold on the target. On to `S=c1sc2c(ncn3nc(-c4ccco4)nc23)n1-c1ccccc1I`, for which, in [1], the Ratio Ki stood at 0.571. Further, the Ki amounted to 0.7 nM in test [2] and 0.4 nM in test [3].

For the compound `S=c1sc2c(ncn3nc(-c4ccco4)nc23)n1-c1cccc(I)c1`, the Ratio Ki in [1] was found to be 320. In addition, the Ki in test [2] amounted to 0.0082 nM; in test [3] it was 2.62 nM.

In the case of `C=CCn1c(=S)sc2c1ncn1nc(-c3ccco3)nc21`, the inhibition result in test [4], in test [5], in test [6], in test [7], in [8] and in test [9] was “Active” throughout. For the same compound, the Ratio Ki in test [1] was determined as 1250. In addition, the figures for the Ki in test [2] and in [3] were 0.016 nM and 19 nM, respectively.

As to `CCCCn1c(=S)sc2c1ncn1nc(-c3ccco3)nc21`, the inhibition result in [4], in test [5], in test [6], in test [7], in test [8] and in test [9] was “Active” each time. In test [1], the Ratio Ki turned out to be 1290. Moreover, the Ki in [2] stood at 0.12 nM; in test [3], 148 nM.

For `CCn1c(=S)sc2c1ncn1nc(-c3ccco3)nc21`, in [1], the Ratio Ki is 0.028. The Ki is 3.56 nM in test [2] and 0.096 nM in test [3].

As to `S=c1sc2c(ncn3nc(-c4ccco4)nc23)n1-c1ccc(Cl)cc1`, the Ratio Ki in test [1] stood at 0.197. The Ki in test [2] was 0.152 nM; in [3] it was 0.03 nM.

As for `S=c1sc2c(ncn3nc(-c4ccco4)nc23)n1-c1ccc(I)cc1`, in test [1], the Ratio Ki was determined as 10.8. Also, the Ki turned out to be 0.57 nM in test [2] and 6.13 nM in test [3].

On to `S=c1sc2c(ncn3nc(-c4ccco4)nc23)n1-c1cccc(Cl)c1`, for which the Ratio Ki in test [1] was determined as 5. Also, the Ki in test [2] stood at 0.038 nM; in test [3], 0.19 nM.

As for `S=c1sc2c(ncn3nc(-c4ccco4)nc23)n1-c1ccccc1`, the Ratio Ki in test [1] is 46.6. In addition, the Ki in [2] is 1.1 nM; in test [3], 48 nM.

Regarding `Fc1ccc(-n2c(=S)sc3c2ncn2nc(-c4ccco4)nc32)cc1`, the Ratio Ki in [1] is 1.59. For the same compound, the Ki in test [2] was 2.02 nM; in [3], 3.21 nM.

For the compound `CCCn1c(=S)sc2c1ncn1nc(-c3ccco3)nc21`, the inhibition entry in [4], in test [5], in [6], in test [7], in test [8] and in test [9] was “Active” in each case. Further, the Ratio Ki in test [1] is 636. The Ki in test [2] turned out to be 0.38 nM; in test [3], 228 nM.
